Reference: patent US20260294770A1, “FORMULATIONS OF NARINGENIN” (DEBUT BIOTECHNOLOGY, INC., priority 2023, published 2026)

What was measured:
KRT10 = test: Upregulation of gene expression and/or activity, 1% naringenin: KRT10
From the text: (§1) In certain embodiments, administration of a composition comprising naringenin leads to up-regulation of LCE5A, KRT77, ALOXE3, KRT1, HPGD, MUCL1, CASP14, WFDC12, KRT10, DNASE1L2, IL37, SERPINB12, HAL, UPK1A, CALML5, LCE2B, and/or MIR205. In certain embodiments, administration of a composition comprising naringenin leads to down-regulation of CCL11, CSF2, IL23A, IL11, BMP6, IL13RA2, C2CD4A, NR4A2, C2CD4B, FGF2, FARP4, GDF15, THBS1, HSPA1A, PTGS2, and/or DKK1. Tables 10 and 11 provide data for upregulation and downregulation respectively of certain genes after administration of compositions comprising 1% naringenin.
Keratin 10 (KRT10) is also involved in keratin production. Keratin is involved in increasing the barrier strength and resilience of the skin. Keratin 10 is produced in keratinocytes in the outer layer of the skin (the epidermis). In the fluid-filled space inside these cells (the cytoplasm), the keratin 10 protein partners with a similar protein, keratin 1 (produced from the KRT1 gene), to form molecules called keratin intermediate filaments. These filaments assemble into strong networks that provide strength and resiliency to the skin and protect it from being damaged by friction and other everyday physical stresses. […]

LCE2B = test: Upregulation of gene expression and/or activity, 1% naringenin: LCE2B
From the text: as §1
Late cornified envelope 2B (LCE2B) plays a role in the formation of precursors of the cornified envelope of the stratum corneum. It also leads to improved formation of outer skin protective barrier. In certain embodiments, the administration of composition comprising naringenin results in upregulation of LCE2B, which has a role in enhancing the outer skin protective barrier. In certain embodiments, the administration of composition comprising naringenin results in at least about 5 to about 20-fold upregulation of expression and/or activity of LCE2B. In certain embodiments, the administration of composition comprising naringenin results in at least about five (5) fold upregulation of expression and/or activity of LCE2B.

THBS1 = test: Downregulation of gene expression and/or activity, 1% naringenin: THBS1; conditions: negative = downregulation
From the text: as §1

KRT77 = test: Upregulation of gene expression and/or activity, 1% naringenin: KRT77
From the text: as §1
Kertain 77 (KRT77) is involved in production of keratin. In particular, KRT77 encodes an epithelial keratin that is expressed in the skin and eccrine sweat glands. KRT77 encodes keratin 77, a member of the type II keratin family of intermediate filament proteins. Keratin 77 is also known as KRT1B, Type II cytoskeletal 1b, Type IT keratin Kb39, and cytokeratin 1B. In certain embodiments, upregulation of expression and/or activity of KRT77, results in enhanced keratin production. The increased keratin production contributes to increase in the skin barrier strength. In certain embodiments, the administration of composition comprising naringenin results in at least about 5 to about 20-fold upregulation of expression and/or activity of KRT77. […]

LCE5A = test: Upregulation of gene expression and/or activity, 1% naringenin: LCE5A
From the text: as §1
Late cornified envelope protein 5A (LCE5A) is involved in formation of outer skin protective barrier. LCE5A may also be involved in keratinization. In certain embodiments, upregulation of expression and/or activity of LCE5A results in improved formation of the outer skin protective barrier. Thus, administration of compositions comprising naringenin, which leads to upregulation of LCE5A, results in increased skin barrier strength. In certain embodiments, the administration of composition comprising naringenin results in at least about 20 to about 50-fold upregulation of expression and/or activity of LCE5A. […]

[1] = target: T1, human neutrophil elastase (Homo sapiens, UniProt P08246); test: Elastase enzyme inhibition; type: biochemical
T1 sequence (P08246 30-267): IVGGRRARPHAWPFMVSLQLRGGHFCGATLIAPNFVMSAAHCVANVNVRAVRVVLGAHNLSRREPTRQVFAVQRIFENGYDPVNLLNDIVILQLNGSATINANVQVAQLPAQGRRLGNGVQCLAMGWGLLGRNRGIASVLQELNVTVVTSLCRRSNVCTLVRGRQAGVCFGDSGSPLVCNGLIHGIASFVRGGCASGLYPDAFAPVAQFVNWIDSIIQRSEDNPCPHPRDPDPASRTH
Description: The assay was conducted to evaluate the elastase enzyme inhibition activity of compositions comprising naringenin.
Neutrophil infiltration and neutrophil elastase are both increased in the skin in response to UV stress. […] Therefore, inhibition of this enzyme, particularly in combination with antioxidant activity, is effective in delaying wrinkle development and aiding in maintaining skin integrity. This assay is measures release of 4-nitroaniline from an Me-Suc-Ala-Ala-Pro-Val-pNA by human neutrophil elastase and can be quantified at 405 nm by comparing to solvent control.

UPK1A = test: Upregulation of gene expression and/or activity, 1% naringenin: UPK1A
From the text: as §1
Uroplakin 1A (UPK1A) is involved in cell proliferation. The proteins in this family mediate signal transduction events that play a role in the regulation of cell development, activation, growth and motility. This encoded protein is found in the asymmetrical unit membrane (AUM) where it can complex with other transmembrane 4 superfamily proteins. UP1A may play a role in normal bladder epithelial physiology, possibly in regulating membrane permeability of superficial umbrella cells or in stabilizing the apical membrane through AUM/cytoskeletal interactions. In certain embodiments, compositions comprising naringenin leads to upregulation of UPK1A, which leads to increase cell proliferation, including the cells in the skin and the underlying tissues. […]

SMILES: O=C1C[C@@H](c2ccc(O)cc2)Oc2cc(O)cc(O)c21 [naringenin, (2S)-5,7-Dihydroxy-2-(4-hydroxyphenyl)-2,3-dihydro-4H-1-benzopyran-4-one]
- Fold-increase in expression and/or activity of KRT10 (KRT10): ~6 fold
- Fold-increase in expression and/or activity of LCE2B (LCE2B): ~9 fold
- Fold-increase (downregulation table) THBS1 (THBS1): −6 fold
- Fold-increase in expression and/or activity of KRT77 (KRT77): ~12 fold
- Fold-increase in expression and/or activity of LCE5A (LCE5A): ~33 fold
- Lowest concentration inhibiting elastase [1]: ≤ 0.02 % w/w
- inhibition at 0.02 % strength ([1]; 0.02 % w/w naringenin): 1.05%
- inhibition at 0.1 % strength ([1]; 0.10 % w/w naringenin): 15.5%
- inhibition at 0.5 % strength ([1]; 0.50 % w/w naringenin): 84%
- IC50 elastase inhibition ([1]; role: inhibitor, substrate Me-Suc-Ala-Ala-Pro-Val-pNA, calculated): 0.159 % w/w
- Fold-increase in expression and/or activity of UPK1A (UPK1A): ~10 fold
